The LOAEL is the lowest tested level that showed an adverse finding. One may read the NOAEL as the highest dose or exposure tested at which no adverse effect was seen.

In data set [1] the test system is rat. The conditions noted are these: Fertility (Segment I), sprague dawley, Injection, Intraperitoneal, dose end: 7 GD.
The test system of data set [2] is rat. The conditions noted are these: Sub-acute repeat dose toxicity, sprague dawley, Injection, Intraperitoneal, dose end: 30 day, group: systemic.
In data set [3] the test system is rat. The conditions noted are these: Multigenerational reproductive toxicity study, sprague dawley, Oral, Feed, dose end: 2 generation.
For data set [4], the system named is rat. The conditions noted are these: Subchronic oral toxicity in rodents, sprague dawley, Feed, dose end: 90 day, group: systemic, systemic / in life observation / body weight / body weight + systemic / in life observation / body weight / body weight gain + systemic / in….
Data set [5] deals with rat. To be noted: Combined chronic toxicity/carcinogenicity, sprague dawley, Oral, Feed, dose end: 104 week, group: systemic.
In data set [6] the test system is rat. To be noted: Prenatal developmental toxicity study, sprague dawley, Oral, Gavage/Intubation, dose end: 15 GD.
Data set [7] has as its system dog. To be noted: Chronic toxicity; beagle; Oral; Feed; dose end: 52 week; group: systemic; systemic / pathology microscopic / liver / degeneration + systemic / pathology microscopic / liver / hyperplasia + systemic / pathology ….
Data set [8] deals with mouse. To be noted: Carcinogenicity, cd1, Oral, Feed, dose end: 78 week, group: systemic.
Data set [9] concerns rat. To be noted: Subchronic oral toxicity in rodents, fischer, Feed, dose end: 90 day.
The subject of data set [10] is rat. The conditions noted are these: Combined chronic toxicity/carcinogenicity, fischer, Oral, Feed, dose end: 2 year, group: systemic.
The subject of data set [11] is dog. To be noted: Chronic toxicity, beagle, Oral, Feed, dose end: 12 month, group: systemic.
The subject of data set [12] is rat. To be noted: Subchronic oral toxicity in rodents, fischer, Feed, dose end: 13 week, group: systemic, systemic / organ weight / liver / nos + systemic / pathology microscopic / liver / [other] + systemic / organ weight / liver / relative to ….
Data set [13] relates to mouse. To be noted: Subchronic oral toxicity in rodents, b6c3f1, Feed, dose end: 13 week, group: systemic, systemic / organ weight / liver / nos + systemic / pathology microscopic / liver / cellular alteration.
The subject of data set [14] is dog. The conditions noted are these: Subchronic oral toxicity in nonrodent, beagle, Feed, dose end: 6 month, group: systemic.
Data set [15] deals with mouse. To be noted: Carcinogenicity, b6c3f1, Oral, Feed, dose end: 2 year, group: systemic.
Data set [16] deals with rat. To be noted: Subchronic oral toxicity in rodents, Feed, dose end: 90 day, group: systemic.
In data set [17] the test system is rat. The conditions noted are these: Combined chronic toxicity/carcinogenicity; fischer; Oral; Feed; dose end: 2 year; group: systemic; systemic / pathology microscopic / liver / hypertrophy + systemic / in life observation / clinical signs / hematuria + systemic / pathology ….
Data set [18] relates to rat. The conditions noted are these: Carcinogenicity; fischer; Oral; Feed; dose end: 2 year; group: systemic; systemic / pathology microscopic / skin / keratoacanthoma.
For data set [19], the system named is mouse. The conditions noted are these: Carcinogenicity; b6c3f1; Oral; Feed; dose end: 2 year; group: systemic; systemic / in life observation / body weight / body weight.
The test system of data set [20] is mouse. The conditions noted are these: Subchronic oral toxicity in rodents, b6c3f1, Feed, dose end: 13 week, group: systemic.
Data set [21] relates to rat. The conditions noted are these: Subchronic oral toxicity in rodents, fischer, Feed, dose end: 13 week, group: systemic.
[22] abbreviates: group: maternal, reproductive / reproductive performance / implantations / implantations + reproductive / reproductive performance / preimplantation loss / ….
The mark [23] stands for this setting: group: parental, systemic / in life observation / body weight / body weight gain + systemic / organ weight / ovary / absolute + systemic / organ weight / ….
Where [24] appears, read: systemic / clinical chemistry / creatinine / creatinine + systemic / in life observation / food consumption / food consumption + systemic / ….
Where [25] appears, read: systemic / pathology microscopic / ovary / follicle count + systemic / in life observation / body weight / body weight.
[26] abbreviates: group: offspring, systemic / in life observation / body weight / offspring (pup) weight + systemic / in life observation / body weight / offspring (pup) ….
Setting [27] is: group: parental, systemic / in life observation / body weight / body weight + systemic / in life observation / body weight / body weight gain.
The mark [28] stands for this setting: systemic / in life observation / body weight / body weight + systemic / in life observation / body weight / body weight gain.
Setting [29] is: systemic / in life observation / body weight / body weight + systemic / in life observation / body weight / body weight gain + systemic / ….
The mark [30] stands for this setting: group: developmental, developmental / developmental malformation / bone / unossified.
Setting [31] is: group: maternal, systemic / in life observation / clinical signs / drooping eyelids (ptosis) + systemic / in life observation / clinical signs / salivation….
Setting [32] is: systemic / in life observation / body weight / body weight gain + systemic / in life observation / food consumption / food efficiency + ….
Where [33] appears, read: group: cholinesterase, cholinesterase / cholinesterase / cholinesterase / brain cholinesterase (che).
Setting [34] is: group: cholinesterase, cholinesterase / cholinesterase / cholinesterase / brain cholinesterase (che) + cholinesterase / cholinesterase / cholinesterase / ….
The mark [35] stands for this setting: group: systemic, systemic / hematology / erythrocyte (rbc) count differential / erythrocyte (rbc) + systemic / hematology / hematocrit (hct) / hematocrit (….
The mark [36] stands for this setting: group: systemic, systemic / hematology / mean corpuscular hemoglobin concentration (mchc) / mean corpuscular hemoglobin concentration (mchc).
Setting [37] is: systemic / in life observation / body weight / body weight + systemic / in life observation / mortality / mortality.
Where [38] appears, read: systemic / organ weight / liver / relative to body weight + systemic / in life observation / body weight / body weight gain + systemic / ….
Where [39] appears, read: systemic / organ weight / liver / absolute + systemic / organ weight / liver / relative to body weight.
Where [40] appears, read: systemic / organ weight / liver / absolute + systemic / organ weight / liver / relative to body weight + systemic / clinical chemistry / ….
[41] abbreviates: systemic / organ weight / kidney / nos + systemic / organ weight / kidney / relative to body weight.
The mark [42] stands for this setting: systemic / organ weight / liver / nos + systemic / pathology microscopic / liver / [other].
[43] abbreviates: systemic / organ weight / liver / nos + systemic / pathology microscopic / liver / [other] + systemic / organ weight / kidney / nos.
Where [44] appears, read: systemic / in life observation / body weight / body weight.
[45] abbreviates: systemic / in life observation / body weight / body weight + systemic / in life observation / mortality / mortality + systemic / pathology ….
Setting [46] is: systemic / in life observation / body weight / body weight + systemic / in life observation / food consumption / food consumption + systemic….

Consider `C1CC2OC2CC1C1CO1` (stereo not given) [4-Vinyl-1-cyclohexene dioxide], for which, in data set [1] (setting [22]), the LEL stood at 80 mg/kg/day, the LOAEL was more than 80 mg/kg/day, the NEL came to 20 mg/kg/day and the NOAEL was not below 80 mg/kg/day. In data set [1] (setting [23]), the LEL came to 80 mg/kg/day, the LOAEL is more than 80 mg/kg/day, the NEL was 20 mg/kg/day and the NOAEL was not below 80 mg/kg/day. In data set [2] (setting [24]), the LOAEL was more than 80 mg/kg/day and the NOAEL is not below 80 mg/kg/day. Moreover, in data set [2] (setting [25]), the LEL came out at 40 mg/kg/day and the NEL was less than 40 mg/kg/day.

With `CCNc1nc(NC(C)C)nc(SC)n1` [Ametryn], the LEL in [3] (setting [26]) was 131 mg/kg/day; in data set [3] (setting [27]), 131 mg/kg/day; in [4], 36.1 mg/kg/day; in data set [5] (setting [28]) it was 20.9 mg/kg/day; in [6] (setting [30]), 50 mg/kg/day; in [6] (setting [31]) it was 50 mg/kg/day. Further, the LEL in data set [7] came to 70 mg/kg/day. Further, the LOAEL is 131 mg/kg/day in data set [3] (setting [26]); 131 mg/kg/day in [3] (setting [27]); 36.1 mg/kg/day in data set [4]; 20.9 mg/kg/day in data set [5] (setting [28]); more than 250 mg/kg/day in data set [6] (setting [30]); 50 mg/kg/day in data set [6] (group: maternal, systemic / in life observation / clinical signs / drooping eyelids (ptosis) + systemic / in life observation / clinical signs / salivation). In data set [7], the LOAEL came to 70 mg/kg/day. Besides, the NEL was determined as 13 mg/kg/day in data set [3] (setting [26]); 13 mg/kg/day in data set [3] (setting [27]); 7.4 mg/kg/day in data set [4]; 2 mg/kg/day in [5] (setting [29]); 5 mg/kg/day in data set [6] (setting [30]); 5 mg/kg/day in data set [6] (setting [31]). The NEL in [7] turned out to be 7.2 mg/kg/day. In addition, the NOAEL in [3] (setting [26]) is 13 mg/kg/day; in data set [3] (setting [27]), 13 mg/kg/day; in [4], 7.4 mg/kg/day; in data set [5] (setting [29]), 2 mg/kg/day; in data set [6] (setting [30]), not below 250 mg/kg/day; in data set [6] (setting [31]), 5 mg/kg/day. For the same compound, the NOAEL in data set [7] was 7.2 mg/kg/day.

With `COC(=O)Nc1cccc(OC(=O)Nc2cccc(C)c2)c1` [Phenmedipham], the LOAEL in data set [8] (systemic / in life observation / body weight / body weight gain + systemic / in life observation / food consumption / food efficiency) is 1070 mg/kg/day; in [9] (setting [34]), more than 366 mg/kg/day; in data set [9] (setting [35]), 35.4 mg/kg/day. For the same compound, the values for the NEL in data set [8] (setting [32]), in data set [9] (setting [33]) and in [9] (setting [36]) were 75 mg/kg/day, less than 3.5 mg/kg/day and less than 3.5 mg/kg/day, respectively. The NOAEL is 302 mg/kg/day in [8] (setting [32]), not below 366 mg/kg/day in data set [9] (setting [34]) and 3.5 mg/kg/day in data set [9] (setting [35]). Further, the LEL was determined as 302 mg/kg/day in data set [8] (systemic / pathology gross / spleen / enlarged + systemic / pathology microscopic / adrenal gland / amyloid deposition + systemic / …), 3.5 mg/kg/day in data set [9] (setting [33]) and 3.5 mg/kg/day in [9] (setting [36]).

With `Nc1c(Cl)c(Cl)nc(C(=O)O)c1Cl` [Picloram], the LEL worked out at 20 mg/kg/day in data set [10] (setting [37]); 175 mg/kg/day in [11] (systemic / organ weight / liver / relative to body weight + systemic / organ weight / liver / absolute); 150 mg/kg/day in [12]; 1000 mg/kg/day in data set [13]; 35 mg/kg/day in data set [14] (setting [39]); 1000 mg/kg/day in data set [15] (systemic / organ weight / kidney / nos). Besides, the results for the LEL in [16] (setting [42]) and in data set [17] were 150 mg/kg/day and 250 mg/kg/day, respectively. Also, the NEL in [10] (setting [37]) was less than 20 mg/kg/day; in [11] (systemic / organ weight / liver / relative to body weight + systemic / in life observation / body weight / body weight gain) it was 35 mg/kg/day; in [12], 50 mg/kg/day; in [13] it was less than 1000 mg/kg/day; in [14] (setting [40]) it was 7 mg/kg/day; in data set [15] (setting [41]), 500 mg/kg/day. Also, the NEL in data set [16] (setting [43]) was 50 mg/kg/day; in [17], less than 250 mg/kg/day. The no-observed-adverse-effect level (NOAEL) in data set [10] (systemic / in life observation / body weight / body weight + systemic / pathology microscopic / liver / hypertrophy + systemic / clinical …) was 20 mg/kg/day; in data set [11] (setting [38]), not below 175 mg/kg/day; in data set [12], 50 mg/kg/day; in data set [13], less than 1000 mg/kg/day; in data set [14] (setting [40]) it was 7 mg/kg/day; in data set [15] (setting [41]), not below 1000 mg/kg/day. The NOAEL in data set [16] (setting [43]) is 50 mg/kg/day; in data set [17] it was less than 250 mg/kg/day. Also, the LOAEL was 60 mg/kg/day in [10] (systemic / pathology microscopic / liver / hypertrophy); more than 175 mg/kg/day in [11] (setting [38]); 150 mg/kg/day in data set [12]; 1000 mg/kg/day in [13]; 35 mg/kg/day in data set [14] (setting [39]); more than 1000 mg/kg/day in [15] (setting [41]). Moreover, the values for the LOAEL in data set [16] (setting [42]) and in data set [17] were 150 mg/kg/day and 250 mg/kg/day, respectively.

For `CCNc1cc2oc3cc(=[NH+]CC)c(C)cc-3c(-c3ccccc3C(=O)OCC)c2cc1C.[Cl-]` [Rhodamine 6G], the LEL in data set [18] was 10 mg/kg/day; in [19], 125 mg/kg/day; in [20] (setting [44]), 300 mg/kg/day; in data set [21] (systemic / in life observation / body weight / body weight + systemic / pathology microscopic / bone marrow / atrophy) it was 25 mg/kg/day. The lowest-observed-adverse-effect level (LOAEL) in data set [18] was more than 10 mg/kg/day; in data set [19], 125 mg/kg/day; in data set [20] (setting [45]), more than 1200 mg/kg/day; in data set [21] (setting [46]), more than 100 mg/kg/day. In addition, the NEL in data set [18] is 5 mg/kg/day; in [19], less than 125 mg/kg/day; in data set [20] (setting [44]), 150 mg/kg/day; in [21] (setting [46]), 12.5 mg/kg/day. Moreover, the NOAEL was not below 10 mg/kg/day in data set [18], less than 125 mg/kg/day in data set [19], not below 1200 mg/kg/day in [20] (setting [45]) and not below 100 mg/kg/day in [21] (setting [46]).

For the origin of these results see EPA's ToxRefDB 2.
